Data taken from patent publication US6261767A, “Method for the qualitative and quantitative detection of DNA damage” (Societe Francaise de Recherches et d'Investissements (SFRI), priority 1995, dated 2001).
Starred links: 1 amine or outer side, 2 acyl side, 3 side chain; linkers in the order of their positions; H or OH if unused. Positions of bridges follow the written chain, without caps; N, C: chain ends. Non-standard residues stand in square brackets, D forms with d. Residues, ends and D or L forms follow the SMILES beside them. Chains are numbered I, II in the order given. Actinocin(9to1) = Cc1c2oc3c(C)ccc(C(=O)[*:1])c3nc-2c(C(=O)[*:2])c(N)c1=O; NMeV = CN[C@H](C(=O)O)C(C)C; Sar = CNCC(=O)O

Key:
[1] = test system: DNA damage generated by methylene blue; assay: antioxidant relative activity (R.A.) against DNA damage by photo-activated methylene blue; assay type: biochemical; conditions: summary of the R.A. table
Procedure: b/ Methylene blue is known to liberate by photo-activation, one atom of oxygen. For the tests to follow, methylene blue was subjected to radiation with visible light for 20 minutes with two bulb lamps of 100 W, a distance between the lamps and the support plates of 30 cm and a concentration of methylene blue of 50 ng/ml. The step of repair of the damage is carried out according to the information indicated above, with the use of the same reaction medium RM. In the same fashion, the plates, after the action of the reaction medium RM are washed three times with the washing solution indicated above, and incubated 15 minutes with a chemiluminescent substrate ("Lumi-Phos 530"). […] For the second test, with methylene blue, the relative activity RA has been calculated of an antioxidant which is equal to: [formula] in which formula: control RLU corresponds to the value of the signal of methylene blue alone subjected to radiation, test RLU corresponds to the value of the signal of methylene blue subjected to […] radiation plus an antioxidant molecule, and reference RLU corresponds to the value of the signal of the antioxidant molecule alone.

[2] = test system: DNA damage generated by hydrogen peroxide; assay: inhibition of / antioxidant relative activity (R.A.) against DNA damage by hydrogen peroxide; assay type: biochemical; conditions: 10 μm metallic chelating agent
[3] = test system: repair activity of extracts from HeLa cells; assay: modulation (inhibition) of the repair activity of cellular extracts from HeLa cells on damaged DNA; assay type: biochemical; conditions: FIG. 9
From the text: The invention also provides a process for measuring the effect of modulation and the inhibitive effect of the repair of at least one molecule, which comprises the following steps:
preparation of damaged DNA fixed on a sensitized support,
action of a composition comprising at least one cellular extract having a repair activity on this DNA, said extract containing markers, and conjointly the action of at least one molecule having the power of modulating the repair action,
direct or indirect revelation of the markers that may be incorporated in the DNA, in the case of repair, and
comparative reading relative to a control specimen.
d/ Repair in the presence of a cellular extract and of agents of known type, comprising for example for a volume of reaction medium (RM) of 50 μl:
In the course of the repair step, see FIG. 1D, the molecules for which it is sought to show a modulator effect of the repair can be added. These molecules are preferably diluted in water or in dimethylsulfoxide (DMSO).

OO [hydrogen peroxide]
quantity for which the maximum ratio of repair is obtained (DNA (plasmid 2959 bp)): 0.27 mM

Vitamin A
antioxidant activity (in words) [1]: no antioxidizing effect

CC(=O)N(O)CCCCCNC(=O)CCC(=O)N(O)CCCCCNC(=O)CCC(=O)N(O)CCCCCN [mesylate deferroxamine]
inhibition of the effects of hydrogen peroxide (production of DNA damage) [2]: inhibits totally

CCn1cc(C(=O)O)c(=O)c2ccc(C)nc21 [nalidixic acid]
inhibitor effect on the repair activity [3]: without effect

COS(C)(=O)=O [MMS, methylmethanesulfonate]
effectiveness of damage as shown by the repair ratio (before vs after adsorption of DNA) (DNA (plasmid 2959 bp); MMS in contact with DNA before the adsorption step, FIG. 7): greater effectiveness of damage

COc1cccc2c1C(=O)c1c(O)c3c(c(O)c1C2=O)C[C@@](O)(C(=O)CO)C[C@@H]3O[C@H]1C[C@H](N)[C@H](O)[C@H](C)O1 [doxorubicine]
inhibitor effect on the repair activity [3]: dose- dependent inhibitor effect

Cc1c2oc3c(C)ccc(C(=O)N[C@@H]4C(=O)N[C@H](C(C)C)C(=O)N5CCC[C@H]5C(=O)N(C)CC(=O)N(C)[C@@H](C(C)C)C(=O)O[C@@H]4C)c3nc-2c(C(=O)N[C@@H]2C(=O)N[C@H](C(C)C)C(=O)N3CCC[C@H]3C(=O)N(C)CC(=O)N(C)[C@@H](C(C)C)C(=O)O[C@@H]2C)c(N)c1=O [actinomycin D] (I: T[dV]P[Sar][NMeV] / II: T[dV]P[Sar][NMeV]; ester I:1-I:C, II:1-II:C; linker I:N-II:N via Actinocin(9to1))
inhibitor effect on the repair activity [3]: dose- dependent inhibitor effect
